Results taken from patent US7390641B2, “Production of peroxidase from plant cell and callus cultures” (Council of Scientific and Industrial Research, priority 2004, dated 2008).
Where two headings read alike, the source gives them in different places.

What was measured:
[1] = test system: callus cultures of Nirgundi (Vitex negundo); experiment: Effect of growth regulators on callus growth and enzyme activity of callus cultures; format: cell-based; details: MS medium, Vitex negundo leaf callus; result in words
From the text: Leaf tissues were taken as explants for callus initiation after being properly washed in 10% Labolene followed by surface sterilization in 0.1% Mercuric chloride under aseptic conditions and inoculated in Murashige and Skoog (MS) medium containing 3% sucrose, 0.8% agar in addition to plant growth regulators like kinetin (6-furfuryl amino purine), BAP (benzyl amino purine), 2,4-D (2,4-dichlorophenoxyacetic acid), NAA (naphthalene acetic acid), IBA (indole-3-butyric acid) alone and in different combinations and sub culturing was also done in similar hormone combinations for proliferation. When no hormone was supplied in the medium, callus growth was very slow albeit showing good peroxidase activity. […] The pH was kept at 5.8 in all the experiments. Once established, the liquid suspension was maintained by the sub-culturing of 10 ml each of 7 day culture into 100 ml of fresh media in 250 ml Erlenmeyer flasks and the CCAs were also maintained by the subsequent sub-culturing of 5 g each of the sample into fresh liquid media and the flasks were placed on a gyratory shaker at 120 rpm in the light at 25° C. Viability as well as activity was maintained even after a period of 6 months.

[2] = test system: Vitex extra cellular peroxidase; format: biochemical, Vitex negundo

Structure (SMILES)	Relative activity(%) ([2]; Reagent 1 Mm, None = 100)	Effect on Vitex peroxidase activity (inhibitor / enhancer / no change) ([2]; result in words)	further results
O=C(O)COc1ccc(Cl)cc1Cl [2,4-D, 2,4-dichlorophenoxyacetic acid]			Effect on callus growth and enzyme activity [1]: reduce both the callus growth as well as enzyme activity
c1ccc(CNc2ncnc3[nH]cnc23)cc1 [BA, benzyl amino purine]			Effect on callus growth and enzyme activity [1]: better callus growth as well as enzyme activity
[Ca+2].[Cl-].[Cl-] [CaCl2]	103	no change in activity	
O=C(O)CN(CCN(CC(=O)O)CC(=O)O)CC(=O)O [EDTA]			Effect on Vitex peroxidase activity (inhibitor / enhancer / no change) [2]: enhancers; Relative activity(%) [2]: 113%
[Cl][Hg][Cl] [HgCl2]	62	Inhibitors	inhibition ([2]; HgCl2, text b118): 60%
O=C(O)Cc1c[nH]c2ccccc12 [IAA]			Effect on callus growth and enzyme activity [1]: reduce both the callus growth as well as enzyme activity
[I-].[K+] [KI]	116		
O=S(=O)([O-])[O-].[Mg+2] [MgSO4]	97	no change in activity	
O=S(=O)([O-])[O-].[Mn+2] [MnSO4]	131	enhancers	
[Cl-].[Na+] [NaCl]			Effect on Vitex peroxidase activity (inhibitor / enhancer / no change) [2]: enhancers; Relative activity(%) [2]: 110%
[N-]=[N+]=[N-].[Na+] [NaN3, sodium azide]	73	enhancers	inhibition (reduction in activity) ([2]; 0.1 ml of 1 mM sodium azide in 2.4 ml of total assay volume): 30%
O=S(=O)([O-])[O-].[Zn+2] [ZnSO4]	138	enhancers	
